Experimental data taken from PMC8196580, “Identification of Kaurane-Type Diterpenes as Inhibitors of Leishmania Pteridine Reductase I” (Molecules, 2021).
Where two headings read alike, the source gives them in different places.

Key:
[1] = test system: L. major; test: ChEMBL dataset of pIC50 values against L. major used for the RF model (Table S1); type: cell-based, Leishmania major; also: call rule not given here
[2] = test system: L. major; design: method as in ChEMBL; conditions: ref ChEMBL, cited from earlier work
[3] = Active/Inactive class assigned to the ChEMBL pIC50 value for Random forest model construction, ref ChEMBL
[4] = ChemBL structures with pIC50 values used for Random forest model construction, L. major
[5] = Active/Inactive class assigned to ChemBL structures for Random forest model construction (Table S1)
[6] = ChemBL structures with pIC50 values used for Random forest model construction (Table S1)

SMILES | Outcome [1, 3] | pIC50 Value [2, 4] | Outcome [1, 5] | pIC50 Value [2, 6]
NP(=O)(OCc1ccc([N+](=O)[O-])c(F)c1)N(CCCl)CCCl (stereo not drawn) [CHEMBL1256990] | Active | 5.04 |  | 
NCCOc1cc(C(=O)Nc2cc(OCCN)c3ccccc3n2)nc(C(=O)Nc2cc(OCCN)c3ccccc3n2)c1 [CHEMBL2349416] |  |  | Active | 5.30
CC(=O)Oc1ccc(OC(C)=O)c2c1CC1(C)CCC(=O)C(C)=C1C2=O (stereo not drawn) [CHEMBL255869] | Inactive | 3.65 |  | 
Cc1cccc2nc(-c3ccc(C(=O)N/N=C/c4cccc(O)c4O)cc3)[nH]c12 [CHEMBL3317782] | Inactive | 4.42 |  | 
Cc1cc2ccc(-c3c(C)cc(O)c4c(O)cccc34)c(O)c2c(C)n1 [CHEMBL222338] | Inactive | 4.00 |  | 
COc1ccccc1-c1nnc(-c2ccc(C(=O)N/N=C/c3cccc(C)c3)cc2)o1 [CHEMBL4097073] | Inactive | 4.40 |  | 
COc1ccc(/C=N\NC(N)=S)cc1OCc1cn(CC(=O)c2ccc(Cl)cc2)nn1 [CHEMBL4163696] |  |  | Active | 5.77
Cn1c([N+](=O)[O-])cnc1-c1nnc(N2CCN(C(=O)c3ccc(Cl)cc3)CC2)s1 [CHEMBL520958] | Inactive | 4.37 |  | 
C[C@H](O)C#CC#CC#CC#CCCCCCCCC(=O)O [CHEMBL487989] |  |  | Active | 5.31
O=[N+]([O-])c1ccc(-c2nnc(N3CCNCC3)s2)o1 [CHEMBL195646] | Active | 5.05 |  | 
COc1cc(OC)c2c(C)[n+](-c3ccc4ncccc4c3)c(C)cc2c1.O=C([O-])C(F)(F)F [CHEMBL481907] | Inactive | 4.00 |  | 
CN(C)Cc1ccc(Nc2c3ccc(N)cc3nc3cc(N)ccc23)cc1 [CHEMBL34804] |  |  | Active | 5.30
Cc1ccc(Cn2cc(CNc3nnc(-c4ccc([N+](=O)[O-])o4)s3)nn2)cc1 [CHEMBL1951530] | Inactive | 4.91 |  | 
NP(=O)(OCc1ccc([N+](=O)[O-])cn1)N(CCCl)CCCl (stereo not drawn) [CHEMBL2158073] | Active | 5.08 |  | 
N=C(N)c1ccc(OCCCCCOc2ccc(C(=N)N)cc2)cc1 [CHEMBL55] | Inactive | 4.82 |  | 
COc1cccc(-c2nc3ccccc3[nH]2)c1 [CHEMBL2297908] |  |  | Active | 5.46
COC(=O)c1ccc(/C=N/NC(=O)c2ccccc2OC)cc1 [CHEMBL2382031] | Inactive | 4.81 |  | 
c1ccc2c(Nc3ccc(NC4CCCC4)cc3)c3ccccc3nc2c1 [CHEMBL90679] |  |  | Active | 6.35
COc1cc([N+](=O)[O-])ccc1COP(N)(=O)N(CCCl)CCCl (stereo not drawn) [CHEMBL1256965] | Inactive | 4.81 |  | 
COc1c(C)cc(O)c2c(OC)cccc12 [CHEMBL2071224] | Inactive | 4.00 |  | 
COc1cc2c(c(OC)c1)C(C)=[N+](c1ccc(OC)c3c(OC)cc(C)cc13)[C@@H](C)C2.O=C([O-])C(F)(F)F [CHEMBL222358] |  |  | Active | 5.31
CCc1ccc(Nc2ncnc3ccc([N+](=O)[O-])cc23)cc1 [CHEMBL3759644] | Inactive | 4.42 |  | 
O=C(c1ccc(Cl)cc1)N1CCN(c2nnc(-c3ccc([N+](=O)[O-])s3)s2)CC1 [CHEMBL515851] | Inactive | 4.62 |  | 
C/C=C/C=C/c1nc2ccccc2n2ccc(OCC)c12 [CHEMBL3260219] |  |  | Active | 5.82
COc1ccc(/C=C/C(=O)c2ccccc2)c(OC)c1 [CHEMBL144626] |  |  | Active | 5.40
O=C(c1ccc(Br)s1)N1CCN(c2nnc(-c3ccc([N+](=O)[O-])s3)s2)CC1 [CHEMBL518866] | Inactive | 4.61 |  | 
O=C(CCl)n1c2ccccc2c2ccccc21 [CHEMBL1651449] | Inactive | 4.00 |  | 

SMILES | Outcome [1, 3] | pIC50 Value [2, 4] | Outcome [1, 5] | pIC50 Value [2, 6]
CCNC(=N)c1ccc(N2CCN(c3nnc(-c4ccc([N+](=O)[O-])o4)s3)CC2)cc1.Cl [CHEMBL1783202] | Inactive | 4.48 |  | 
c1ccc(-c2nc3ccccn3c2-c2ccccc2)cc1 [CHEMBL1719415] | Inactive | 4.65 |  | 
CCN1CSC(=S)N(CC)C1 [CHEMBL1571763] | Inactive | 4.42 |  | 
Nc1ccc(Nc2c3ccccc3nc3ccccc23)cn1 [CHEMBL84678] |  |  | Active | 5.41
COc1cccc2c(-c3ccc(O)c4c3CC(C)(C)N=C4)ccc(O)c12 [CHEMBL1277993] | Inactive | 4.00 |  | 
Cc1ccc2nc(CCC3CCCCC3)[nH]c2c1 [CHEMBL1255797] | Inactive | 4.63 |  | 
CC1=N[C@H](C)Cc2c(-c3cccc(Cl)c3)ccc(O)c21 [CHEMBL1275866] | Inactive | 4.28 |  | 
CCOc1cc(NC(=N)c2ccccn2)ccc1-c1ccc(-c2ccc(NC(=N)c3ccccn3)cc2OCC)o1 [CHEMBL1276549] |  |  | Active | 7.59
O=[N+]([O-])c1ccc(-c2nnc(N3CCOCC3)s2)s1 [CHEMBL195645] | Inactive | 4.97 |  | 
O/N=C1/c2ccccc2OC(c2cccc(Cl)c2)C1n1ccnc1 (stereo not drawn) [CHEMBL4088885] | Inactive | 4.58 |  | 
O=C(C(Cl)Cl)N1c2ccccc2Oc2ccccc21 [CHEMBL3759299] | Inactive | 4.09 |  | 
NP(=O)(OCc1ccc([N+](=O)[O-])cc1F)N(CCCl)CCCl (stereo not drawn) [CHEMBL1256991] |  |  | Active | 5.33
C[C@@H]1CC[C@@]2(OC1)O[C@H]1C[C@H]3C4=CCC5=CC(=O)[C@@H](O)C[C@]5(C)[C@H]4C[C@H](O)[C@]3(C)[C@H]1[C@@H]2C [CHEMBL455616] | Inactive | 4.15 |  | 
O=C(/C=C/c1ccc(-n2ccnc2)cc1)c1ccc(Br)cc1 [CHEMBL570693] |  |  | Active | 5.61
COc1ccccc1-c1nnc(-c2ccc(C(=O)N/N=C/c3cc(O)c(O)cc3O)cc2)o1 [CHEMBL4098126] |  |  | Active | 6.01
Cl.O=[N+]([O-])c1ccc(-c2nnc(N3CCN(c4ccc(C5=NCCN5)cc4)CC3)s2)o1 [CHEMBL1783210] | Inactive | 3.70 |  | 
CC1=C2C(=O)c3c(O)ccc(O)c3CC2(C)CCC1=O (stereo not drawn) [CHEMBL255104] | Inactive | 3.52 |  | 
c1ccc(Nc2c3ccccc3nc3ccccc23)cc1 [CHEMBL49436] |  |  | Active | 5.57
CCCCCCN(C)c1ccc(Nc2c3ccccc3nc3ccccc23)cc1OC [CHEMBL88682] |  |  | Active | 6.22
O=C(/C=C/C1=Cc2cc(Cl)ccc2OC1)c1ccc(Cl)cc1Cl [CHEMBL1097966] |  |  | Active | 5.72
Cc1ccc(-c2nc3ccc([N+](=O)[O-])cc3[nH]2)o1 [CHEMBL2295863] |  |  | Active | 5.58
C[C@]12CC[C@H](O)C[C@@H]1CC[C@@H]1[C@@H]2CC[C@@]2(C)[C@H]1CC[C@@H]2[C@@](C)(O)c1cccnc1 [CHEMBL1214312] | Inactive | 4.00 |  | 
c1ccc2c(Nc3ccc(NC4CCCCC4)cc3)c3ccccc3nc2c1 [CHEMBL89171] |  |  | Active | 6.26
O=[N+]([O-])c1ccc(-c2nnc(NCc3cn(Cc4cccc(Cl)c4Cl)nn3)s2)o1 [CHEMBL1951533] | Inactive | 3.99 |  | 
CCCNC(=N)c1ccc(N2CCN(c3nnc(-c4ccc([N+](=O)[O-])o4)s3)CC2)cc1.Cl [CHEMBL1783203] | Active | 5.00 |  | 
O=C(/C=C/c1ccc(-n2ccnc2)cc1)c1ccc(Cl)cc1Cl [CHEMBL570849] |  |  | Active | 5.68
Clc1cc(Cl)cc(-c2c(-c3ccccc3)nc3cnccn23)c1 [CHEMBL3634355] | Inactive | 4.99 |  | 
